Paper PMC8213057, “Targeting ALK2: An Open Science Approach to Developing Therapeutics for the Treatment of Diffuse Intrinsic Pontine Glioma” (Journal of Medicinal Chemistry, 2020)

How the values were obtained:
CYP1A2 = biological target: T1, CYP1A2 (Homo sapiens, UniProt P05177); experiment: CYP inhibition assay; format: in vitro ADME; conditions: human liver microsomes
T1 construct: tissue Corning 452117; host or cells: pooled human liver microsomes (UltraPool HLM 150, mixed gender)

CDK2/Cyclin A1 = CDK2/Cyclin A1 (Homo sapiens, UniProt P24941); conditions: 1 μM; Run 1, Run 2
DYRK1B = DYRK1B (Homo sapiens, UniProt Q9Y463); conditions: 1 μM; Run 1, Run 2
Chain of DYRK1B (Q9Y463 whole entry): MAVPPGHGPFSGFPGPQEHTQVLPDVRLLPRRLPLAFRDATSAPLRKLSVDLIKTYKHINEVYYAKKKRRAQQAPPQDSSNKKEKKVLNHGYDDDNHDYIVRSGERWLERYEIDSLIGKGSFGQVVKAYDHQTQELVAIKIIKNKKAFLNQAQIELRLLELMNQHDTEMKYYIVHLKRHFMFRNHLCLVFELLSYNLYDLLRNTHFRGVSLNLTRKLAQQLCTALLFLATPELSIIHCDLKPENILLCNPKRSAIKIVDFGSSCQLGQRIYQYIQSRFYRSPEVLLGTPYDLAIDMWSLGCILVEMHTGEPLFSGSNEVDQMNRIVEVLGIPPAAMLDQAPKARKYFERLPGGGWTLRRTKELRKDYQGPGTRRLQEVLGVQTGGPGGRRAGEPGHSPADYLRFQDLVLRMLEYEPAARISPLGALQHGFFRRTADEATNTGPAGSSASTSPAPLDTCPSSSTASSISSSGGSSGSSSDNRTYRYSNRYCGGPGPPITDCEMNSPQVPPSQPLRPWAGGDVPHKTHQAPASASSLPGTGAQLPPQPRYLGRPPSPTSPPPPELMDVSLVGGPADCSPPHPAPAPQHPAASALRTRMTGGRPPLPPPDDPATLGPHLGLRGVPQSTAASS

DYRK4 = biological target: T2, DYRK4 (Homo sapiens, UniProt Q9NR20); conditions: 1 μM; Run 1, Run 2
T2 sequence (Q9NR20 1-520): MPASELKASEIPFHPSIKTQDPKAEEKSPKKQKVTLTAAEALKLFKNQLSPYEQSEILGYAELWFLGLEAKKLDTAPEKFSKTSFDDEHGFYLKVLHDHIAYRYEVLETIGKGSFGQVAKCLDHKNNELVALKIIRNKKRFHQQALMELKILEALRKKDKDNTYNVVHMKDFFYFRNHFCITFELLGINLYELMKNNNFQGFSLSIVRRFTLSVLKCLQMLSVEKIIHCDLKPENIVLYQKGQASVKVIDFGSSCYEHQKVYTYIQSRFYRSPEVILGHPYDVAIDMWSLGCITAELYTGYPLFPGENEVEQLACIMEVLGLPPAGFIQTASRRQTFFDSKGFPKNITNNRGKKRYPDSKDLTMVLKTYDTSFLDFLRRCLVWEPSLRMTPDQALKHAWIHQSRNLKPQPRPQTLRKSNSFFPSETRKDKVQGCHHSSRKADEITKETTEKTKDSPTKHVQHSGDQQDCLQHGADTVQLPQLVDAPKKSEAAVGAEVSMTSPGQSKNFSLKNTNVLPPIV

STK32C/YANK3 = STK32C/YANK3 (Homo sapiens, UniProt Q86UX6); conditions: 1 μM; Run 1, Run 2
Chain of STK32C/YANK3 (Q86UX6 whole entry): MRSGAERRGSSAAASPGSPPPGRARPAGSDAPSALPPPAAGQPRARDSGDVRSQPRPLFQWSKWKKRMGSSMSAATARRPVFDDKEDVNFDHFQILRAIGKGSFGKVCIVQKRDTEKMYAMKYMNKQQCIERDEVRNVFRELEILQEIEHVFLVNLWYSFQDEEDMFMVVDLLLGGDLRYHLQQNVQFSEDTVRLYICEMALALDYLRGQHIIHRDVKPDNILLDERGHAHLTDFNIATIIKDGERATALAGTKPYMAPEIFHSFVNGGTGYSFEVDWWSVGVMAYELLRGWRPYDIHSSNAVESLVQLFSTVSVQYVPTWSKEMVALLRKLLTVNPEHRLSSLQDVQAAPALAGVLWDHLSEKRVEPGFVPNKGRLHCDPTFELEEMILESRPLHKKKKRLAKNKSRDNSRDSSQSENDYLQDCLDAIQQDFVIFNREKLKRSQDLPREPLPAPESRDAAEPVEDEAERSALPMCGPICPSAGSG

AURORA B = AURORA B (Homo sapiens, UniProt Q96GD4); experiment: biochemical; conditions: read-out: % enzyme activity, 1 μM; Run 1, Run 2
Chain of AURORA B (Q96GD4 whole entry): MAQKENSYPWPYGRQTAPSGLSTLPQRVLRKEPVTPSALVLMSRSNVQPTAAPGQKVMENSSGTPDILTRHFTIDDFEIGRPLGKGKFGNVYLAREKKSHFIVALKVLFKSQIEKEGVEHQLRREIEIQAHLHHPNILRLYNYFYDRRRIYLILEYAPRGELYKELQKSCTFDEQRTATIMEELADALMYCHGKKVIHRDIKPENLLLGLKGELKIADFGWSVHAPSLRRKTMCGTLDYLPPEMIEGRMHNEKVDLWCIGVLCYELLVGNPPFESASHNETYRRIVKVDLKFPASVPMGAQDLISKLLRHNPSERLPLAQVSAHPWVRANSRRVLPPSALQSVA

CTK/MATK = biological target: T3, CTK/MATK (Homo sapiens, UniProt P42679); experiment: biochemical; conditions: read-out: % enzyme activity, 1 μM; Run 1, Run 2
T3 sequence (P42679 1-507): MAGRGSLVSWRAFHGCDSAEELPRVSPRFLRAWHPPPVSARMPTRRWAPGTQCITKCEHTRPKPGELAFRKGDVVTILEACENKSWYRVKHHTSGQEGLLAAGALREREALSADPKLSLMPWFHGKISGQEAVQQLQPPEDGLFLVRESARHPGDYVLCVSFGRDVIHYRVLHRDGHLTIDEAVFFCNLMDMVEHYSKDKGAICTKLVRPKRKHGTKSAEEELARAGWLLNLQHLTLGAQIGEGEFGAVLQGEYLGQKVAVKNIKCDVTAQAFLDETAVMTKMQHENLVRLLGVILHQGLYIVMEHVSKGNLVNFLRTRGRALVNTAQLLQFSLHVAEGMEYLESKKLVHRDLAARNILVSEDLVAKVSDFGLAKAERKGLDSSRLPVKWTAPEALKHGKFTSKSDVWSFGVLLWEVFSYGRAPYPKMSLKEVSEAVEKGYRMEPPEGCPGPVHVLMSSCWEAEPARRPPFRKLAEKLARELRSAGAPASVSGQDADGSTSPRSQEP

FER = FER (Homo sapiens, UniProt P16591); experiment: biochemical; conditions: read-out: % enzyme activity, 1 μM; Run 1, Run 2
Chain of FER (P16591 whole entry): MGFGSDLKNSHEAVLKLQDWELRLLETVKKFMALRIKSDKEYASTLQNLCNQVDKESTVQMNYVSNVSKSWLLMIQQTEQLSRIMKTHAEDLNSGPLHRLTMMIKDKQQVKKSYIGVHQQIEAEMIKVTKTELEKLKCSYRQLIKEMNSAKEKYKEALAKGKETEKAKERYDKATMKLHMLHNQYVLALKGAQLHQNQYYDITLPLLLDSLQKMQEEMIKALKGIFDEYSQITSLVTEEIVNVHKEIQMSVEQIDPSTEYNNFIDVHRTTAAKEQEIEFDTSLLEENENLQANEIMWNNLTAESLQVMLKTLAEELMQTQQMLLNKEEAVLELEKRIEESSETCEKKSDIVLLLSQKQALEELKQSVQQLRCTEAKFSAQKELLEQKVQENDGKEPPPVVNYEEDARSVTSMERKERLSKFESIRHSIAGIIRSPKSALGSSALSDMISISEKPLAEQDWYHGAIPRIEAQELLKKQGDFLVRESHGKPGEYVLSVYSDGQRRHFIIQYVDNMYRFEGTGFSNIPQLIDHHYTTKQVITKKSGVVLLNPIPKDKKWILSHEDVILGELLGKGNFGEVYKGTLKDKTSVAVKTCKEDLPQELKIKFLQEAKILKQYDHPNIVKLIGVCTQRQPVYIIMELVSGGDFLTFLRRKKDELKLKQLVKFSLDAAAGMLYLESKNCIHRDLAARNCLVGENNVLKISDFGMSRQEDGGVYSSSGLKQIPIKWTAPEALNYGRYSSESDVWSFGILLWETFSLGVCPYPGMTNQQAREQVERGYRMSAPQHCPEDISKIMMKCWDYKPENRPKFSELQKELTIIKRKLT

MEKK6 = biological target: T4, MEKK6 (Homo sapiens, UniProt O95382); experiment: biochemical; conditions: read-out: % enzyme activity, 1 μM; Run 1, Run 2
T4 sequence (O95382 1-1288): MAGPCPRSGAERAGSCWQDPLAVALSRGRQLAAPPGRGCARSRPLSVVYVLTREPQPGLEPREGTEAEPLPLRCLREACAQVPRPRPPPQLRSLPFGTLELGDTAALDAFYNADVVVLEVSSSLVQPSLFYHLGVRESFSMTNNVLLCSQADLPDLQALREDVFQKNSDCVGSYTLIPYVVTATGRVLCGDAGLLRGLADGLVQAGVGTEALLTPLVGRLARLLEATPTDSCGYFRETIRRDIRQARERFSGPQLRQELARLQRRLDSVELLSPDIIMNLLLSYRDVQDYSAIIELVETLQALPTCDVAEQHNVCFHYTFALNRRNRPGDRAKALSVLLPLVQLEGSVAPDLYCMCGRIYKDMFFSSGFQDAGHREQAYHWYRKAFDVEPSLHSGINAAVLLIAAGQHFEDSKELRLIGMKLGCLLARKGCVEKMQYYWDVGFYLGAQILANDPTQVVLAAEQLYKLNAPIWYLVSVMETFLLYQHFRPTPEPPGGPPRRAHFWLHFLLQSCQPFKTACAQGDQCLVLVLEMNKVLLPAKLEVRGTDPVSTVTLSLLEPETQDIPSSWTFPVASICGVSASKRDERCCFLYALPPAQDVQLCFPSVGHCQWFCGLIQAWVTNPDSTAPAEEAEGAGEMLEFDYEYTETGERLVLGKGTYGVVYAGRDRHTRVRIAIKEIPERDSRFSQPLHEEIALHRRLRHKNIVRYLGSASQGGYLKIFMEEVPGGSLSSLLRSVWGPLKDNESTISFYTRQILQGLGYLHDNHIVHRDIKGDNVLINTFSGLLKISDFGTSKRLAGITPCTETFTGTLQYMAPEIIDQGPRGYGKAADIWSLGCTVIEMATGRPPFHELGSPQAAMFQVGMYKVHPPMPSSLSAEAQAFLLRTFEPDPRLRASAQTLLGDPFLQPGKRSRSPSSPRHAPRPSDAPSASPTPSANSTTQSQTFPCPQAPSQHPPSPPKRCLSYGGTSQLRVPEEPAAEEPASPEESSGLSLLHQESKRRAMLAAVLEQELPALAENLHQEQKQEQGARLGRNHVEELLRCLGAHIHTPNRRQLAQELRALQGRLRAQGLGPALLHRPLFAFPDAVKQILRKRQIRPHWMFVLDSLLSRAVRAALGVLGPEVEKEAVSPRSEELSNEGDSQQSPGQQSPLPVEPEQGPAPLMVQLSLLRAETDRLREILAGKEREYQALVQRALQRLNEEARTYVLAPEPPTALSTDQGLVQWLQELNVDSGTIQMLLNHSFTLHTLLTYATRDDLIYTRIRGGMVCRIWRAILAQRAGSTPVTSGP

PAK4 = PAK4 (Homo sapiens, UniProt O96013); experiment: biochemical; conditions: read-out: % enzyme activity, 1 μM; Run 1, Run 2
ROCK1 = ROCK1 (Homo sapiens, UniProt Q13464); experiment: biochemical; conditions: read-out: % enzyme activity, 1 μM; Run 1, Run 2
Chain of ROCK1 (Q13464 whole entry): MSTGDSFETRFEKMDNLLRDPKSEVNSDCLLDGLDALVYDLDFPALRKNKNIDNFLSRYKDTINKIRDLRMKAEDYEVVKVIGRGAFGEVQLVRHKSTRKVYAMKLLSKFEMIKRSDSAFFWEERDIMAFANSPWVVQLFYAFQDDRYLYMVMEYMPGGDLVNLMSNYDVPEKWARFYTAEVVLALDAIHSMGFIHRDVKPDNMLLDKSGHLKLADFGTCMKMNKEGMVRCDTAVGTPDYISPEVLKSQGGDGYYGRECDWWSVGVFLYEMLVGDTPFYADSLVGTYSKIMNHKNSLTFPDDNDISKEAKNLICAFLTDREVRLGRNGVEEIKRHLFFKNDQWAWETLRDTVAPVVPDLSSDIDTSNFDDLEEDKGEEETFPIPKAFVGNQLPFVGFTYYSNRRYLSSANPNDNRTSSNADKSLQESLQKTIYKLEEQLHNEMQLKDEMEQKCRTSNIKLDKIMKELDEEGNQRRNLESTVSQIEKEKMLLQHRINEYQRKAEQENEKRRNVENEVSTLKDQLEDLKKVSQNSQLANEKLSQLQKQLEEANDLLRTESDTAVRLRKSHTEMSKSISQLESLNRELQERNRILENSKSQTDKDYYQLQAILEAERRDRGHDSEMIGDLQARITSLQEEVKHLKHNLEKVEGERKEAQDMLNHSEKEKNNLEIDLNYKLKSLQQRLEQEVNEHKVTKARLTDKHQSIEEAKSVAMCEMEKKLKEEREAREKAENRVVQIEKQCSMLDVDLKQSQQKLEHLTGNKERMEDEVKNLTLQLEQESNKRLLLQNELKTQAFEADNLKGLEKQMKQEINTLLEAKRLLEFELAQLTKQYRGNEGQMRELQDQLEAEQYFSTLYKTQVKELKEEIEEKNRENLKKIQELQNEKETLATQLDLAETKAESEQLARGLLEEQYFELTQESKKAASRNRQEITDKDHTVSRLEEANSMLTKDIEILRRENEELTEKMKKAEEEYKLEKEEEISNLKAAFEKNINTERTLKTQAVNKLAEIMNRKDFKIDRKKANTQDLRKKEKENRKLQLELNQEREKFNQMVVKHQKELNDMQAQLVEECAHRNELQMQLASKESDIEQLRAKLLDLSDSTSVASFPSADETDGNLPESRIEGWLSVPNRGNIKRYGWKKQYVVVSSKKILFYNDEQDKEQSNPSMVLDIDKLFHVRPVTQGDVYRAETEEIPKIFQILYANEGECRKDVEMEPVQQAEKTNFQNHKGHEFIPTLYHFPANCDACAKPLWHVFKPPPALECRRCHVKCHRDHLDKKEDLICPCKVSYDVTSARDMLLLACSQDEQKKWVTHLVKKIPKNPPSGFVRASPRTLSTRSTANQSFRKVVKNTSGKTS

RSK2 = RSK2 (Homo sapiens, UniProt P51812); experiment: biochemical; conditions: read-out: % enzyme activity, 1 μM; Run 1, Run 2
Chain of RSK2 (P51812 whole entry): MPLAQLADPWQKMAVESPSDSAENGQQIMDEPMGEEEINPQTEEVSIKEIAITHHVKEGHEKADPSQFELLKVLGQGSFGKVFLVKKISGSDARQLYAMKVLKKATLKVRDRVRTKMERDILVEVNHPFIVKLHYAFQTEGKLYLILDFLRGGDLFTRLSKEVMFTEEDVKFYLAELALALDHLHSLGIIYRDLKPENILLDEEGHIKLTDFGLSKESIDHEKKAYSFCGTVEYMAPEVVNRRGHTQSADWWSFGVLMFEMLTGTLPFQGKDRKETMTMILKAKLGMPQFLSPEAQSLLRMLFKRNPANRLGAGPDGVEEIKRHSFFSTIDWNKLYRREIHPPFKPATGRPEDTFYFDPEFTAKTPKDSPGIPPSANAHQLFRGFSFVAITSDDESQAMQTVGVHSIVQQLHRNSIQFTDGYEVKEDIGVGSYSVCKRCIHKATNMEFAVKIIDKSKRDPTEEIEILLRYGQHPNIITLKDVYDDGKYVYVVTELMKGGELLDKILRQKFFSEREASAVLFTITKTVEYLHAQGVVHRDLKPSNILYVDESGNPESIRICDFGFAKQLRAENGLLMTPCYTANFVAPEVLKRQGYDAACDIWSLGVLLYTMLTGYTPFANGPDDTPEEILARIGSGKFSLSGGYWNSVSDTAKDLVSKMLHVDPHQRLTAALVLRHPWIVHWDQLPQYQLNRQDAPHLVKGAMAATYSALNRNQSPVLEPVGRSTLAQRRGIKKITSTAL

T1 sequence (P05177 whole entry): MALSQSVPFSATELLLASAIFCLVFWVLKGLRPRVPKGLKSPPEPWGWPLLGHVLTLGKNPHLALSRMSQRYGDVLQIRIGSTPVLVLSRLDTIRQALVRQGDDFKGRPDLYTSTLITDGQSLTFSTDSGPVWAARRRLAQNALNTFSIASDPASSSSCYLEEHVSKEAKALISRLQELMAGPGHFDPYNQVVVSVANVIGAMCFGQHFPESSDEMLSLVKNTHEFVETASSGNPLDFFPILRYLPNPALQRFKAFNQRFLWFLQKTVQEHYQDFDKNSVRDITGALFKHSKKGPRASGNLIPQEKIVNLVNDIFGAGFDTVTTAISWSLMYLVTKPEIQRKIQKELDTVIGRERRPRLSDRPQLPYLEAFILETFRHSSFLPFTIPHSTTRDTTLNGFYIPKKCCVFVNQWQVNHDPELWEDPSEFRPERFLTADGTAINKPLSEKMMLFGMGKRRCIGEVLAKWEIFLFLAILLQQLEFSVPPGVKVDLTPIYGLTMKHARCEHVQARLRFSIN

SMILES | CYP inhibition (CYP2C9) [µM] | IC50 (CYP1A2) [µM] | % enzyme activity (CDK2/Cyclin A1) [%] | % enzyme activity (DYRK1B) [%] | % enzyme activity (DYRK4) [%] | % enzyme activity (STK32C/YANK3) [%] | remaining activity at 1 µM (AURORA B) [%] | remaining activity at 1 µM (CTK/MATK) [%] | remaining activity at 1 µM (FER) [%] | remaining activity at 1 µM (MEKK6) [%] | remaining activity at 1 µM (PAK4) [%] | remaining activity at 1 µM (ROCK1) [%] | remaining activity at 1 µM (RSK2) [%]
COc1cc(-c2cncc(-c3ccc(N4CCN(C)CC4)cc3)c2C)cc(F)c1C(N)=O [Compound 26a, 2-Fluoro-6-methoxy-4-(4-methyl-5-(4-(4-methylpiperazin-1-yl)phenyl)pyridin-3-yl)benzamide] | > 50 | > 50 | 99.67 | 39.80 | 102.49 | 85.01 | 102 | 95.2 | 89.2 | 98.3 | 98.5 | 95 | 101
COc1cc(-c2cncc(-c3ccc(N4C[C@@H](C)N(C)[C@@H](C)C4)cc3)c2C)cc(F)c1C(N)=O [Compound 26c, 2-Fluoro-6-methoxy-4-(4-methyl-5-(4-((3R,5S)-3,4,5-trimethylpiperazin-1-yl)phenyl)pyridin-3-yl)benzamide] | > 50 | > 50 | 97.14 | 58.52 | 100.24 | 91.96 | 105 | 99.2 | 86 | 95.9 | 99.9 | 94.7 | 103
